The values below come from patent US10870630B2, “Substituted bicyclic heteroaryl allosteric modulators of nicotinic acetylcholine receptors” (Merck Sharp & Dohme Corp., priority 2016, dated 2020).

The target of the assay is human α7 nicotinic acetylcholine receptor (α7 nAChR) (Homo sapiens, UniProt P36544). Briefly: Automated patch-clamp electrophysiology functional assay (Assay A). The following applies: HEK cell line stably expressing human RIC-3 and human α7, IonFlux HT whole-cell population patch, 40 μM acetylcholine. Format: cell-based. As for the experimental part: The α7 nAChR positive allosteric modulator (PAM) activity of the present compounds may be tested using assays known in the art. The α7 nAChR PAMs described herein have activities in an automated patch-clamp electrophysiology functional assay as described in the examples. The assay was performed using the IonFlux HT in a whole-cell, population patch configuration. See Golden et al. Assay Drug Dev. Technol. (2011) 9:608-619. The compounds were assessed for their ability to modulate the function of the human […] nAChR stably expressed in a HEK cell line both in the presence, and in the absence of the natural 07 agonist acetylcholine. By performing a series of such measurements at different concentrations, the effective concentration of the α7 nAChR PAMs (EC50) was determined. See Spencer et al. Assay Drug Dev. Technol. (2012) 10:313-324.
Automated patch-clamp electrophysiology was performed using the IonFlux HT (Fluxion Biosciences Inc., San Francisco, Calif.) in the whole-cell, population patch configuration. Test compounds were assessed for their ability to modulate the function of the α7 nicotinic acetylcholine receptor both in the presence, and in the absence of the natural α7 agonist acetylcholine. A HEK cell line stably expressing both human RIC-3 and human α7 (PrecisION hnAChR α7/RIC-3, Eurofins Pharma, St. Charles, Mo.) was cultured in 175 cm^2 triple-layer tissue culture flasks to no more than 90% confluency in DMEM/F-12 growth media supplemented with 10% heat-inactivated fetal bovine serum, 1% non-essential amino acids, 0.625 μg/mL Puromycin, and 400 μg/mL Geneticin. Immediately prior to assay, cells were detached by first aspirating growth media, rinsing with Dulbecco's phosphate buffered saline, and then adding 10 mL of Accutase (Innovative Cell Technologies, San Diego, Calif.) to the flask and then incubating at 37° C. for 5 minutes. Detached cells were then recovered by the addition of 40 mL of CHO-serum-free media supplemented with 25 mM HEPES, and rocked gently in a 50 mL conical tube for 20 minutes prior to patch-clamp assay. After recovery, cells were pelleted by centrifugation at 1,000 RPM for 1 minute in a compact bench top centrifuge; recovery media was aspirated and cells were resuspended in external recording solution (150 mM NaCl, 5 mM KCl, 2 mM CaCl2, 1 mM MgCl2, 10 mM HEPES, 12 mM dextrose) to a density of 5.0×10^6 cells/mL. The cell suspension was added to the cell inlet wells on an IonFlux HT population patch plate which had previously been rinsed and primed with deionized H2O. Test compounds were serially diluted in DMSO and then resuspended to the final test concentration in external recording solution, with, or without 40 μM acetylcholine added to the external recording solution; test compounds were then transferred to the IonFlux HT population patch plate. Internal recording solution (110 mM TrisPO4, 28 mM TrisBase, 0.1 mM CaCl2, 2 mM MgCl2, 11 mM EGTA, 4 mM MgATP) was added to the internal recording solution inlet wells on the IonFlux HT patch plate previously loaded with cells and test compounds, and the plate loaded into the IonFlux HT instrument. A protocol was executed on the IonFlux HT to trap the cells, break into the cells, and establish the whole-cell recording configuration; cells were voltage-clamped at a holding potential of −60 mV for the duration of the experiment, all experiments were conducted at room temperature, and the IonFlux HT injection pressure was 8 psi for solution applications. Upon establishing the whole-cell configuration, external recording solution was perfused into the recording chambers for 120 seconds and then 40 μM acetylcholine was applied for 1 second and immediately washed off with external recording solution for 60 seconds. The 40 μM acetylcholine-evoked α7 current served as the current response to which subsequent test compound effects, in the presence, or in the absence of 40 μM acetylcholine would be quantified relative to. […]
In general terms: In patch-clamp work, channel activity is measured electrically.

Like-named read-outs stand apart in the source and are kept apart here.

human α7 nicotinic acetylcholine receptor (α7 nAChR), sequence (P36544 23-502): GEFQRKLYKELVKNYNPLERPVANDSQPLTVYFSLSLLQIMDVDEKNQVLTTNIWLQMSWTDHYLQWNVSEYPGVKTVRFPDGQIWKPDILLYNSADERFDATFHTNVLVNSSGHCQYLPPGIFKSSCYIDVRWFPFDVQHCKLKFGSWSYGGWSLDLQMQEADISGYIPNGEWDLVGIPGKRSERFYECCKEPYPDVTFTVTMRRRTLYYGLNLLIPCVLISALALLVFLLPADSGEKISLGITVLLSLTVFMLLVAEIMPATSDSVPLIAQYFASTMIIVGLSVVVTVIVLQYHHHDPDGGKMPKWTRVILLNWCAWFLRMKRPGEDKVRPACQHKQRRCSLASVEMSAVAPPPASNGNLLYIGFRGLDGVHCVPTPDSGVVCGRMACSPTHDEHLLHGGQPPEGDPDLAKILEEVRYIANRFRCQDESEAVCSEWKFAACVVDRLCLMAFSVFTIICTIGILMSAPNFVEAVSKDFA

As to `NS(=O)(=O)c1ccc([C@H]2[C@H](c3nc4ccccc4s3)C2(F)F)cc1` [Example A8, 4-[(1R,3S)-3-(1,3-Benzothiazol-2-yl)-2,2-difluoro-cyclopropyl]benzenesulfonamide], the EC50 (read-out: α7 nAChR EC50) is 38 nM and the EC50 (read-out: α7 nAChR Potency) is at most 100 nM. Turning to `NS(=O)(=O)c1ccc(C2CC2c2cnc3occc3c2)cc1` (racemic) [Example E11, 4-(2-Furo[2,3-b]pyridin-5-ylcyclopropyl)benzenesulfonamide], under “read-out: α7 nAChR Potency”, the EC50 lay within 500 to 5000 nM.

With `NS(=O)(=O)c1ccc(C2CC2c2ccc3ccncc3n2)cc1` (racemic) [Example E8, 4-[2-(1,7-Naphthyridin-2-yl)cyclopropyl]benzenesulfonamide], the EC50 (read-out: α7 nAChR Potency) is 500 to 5000 nM. In the case of `CC1(C)[C@@H](c2ccc(S(N)(=O)=O)cc2)[C@@H]1c1nc2ccc(Cl)cc2o1` [Example A5, 4-[(1S,3S)-3-(6-Chloro-1,3-benzoxazol-2-yl)-2,2-dimethyl-cyclopropyl]benzenesulfonamide], the EC50 is 1200 nM (read-out: α7 nAChR EC50) and 500 to 5000 nM (read-out: α7 nAChR Potency).
